Experimental data reported in patent US11819492B2, “Natural product derivatives for inhibiting cellular necroptosis, ferroptosis and oxytosis” (Institut National de la Sante et de la Recherche Medicale …, priority 2016, dated 2023).

What was measured:
[1] = tested on: Jurkat FADD-deficient I 2.1 cell line; experiment: TNF-α-induced necroptosis in Jurkat FADD-deficient cells, MTS viability assay; format: cell-based, human; conditions: TNF-α 10 ng/ml, 24 hours
Description: TNF-α can induce necroptosis in Jurkat cells (human T lymphocytes) when FADD is deleted. This model was used to screen various libraries of chemical compounds for characterization of new inhibitors of cellular necroptosis. Details on this cell-based assay can be found in Miao and Degterev (Methods Mol. Biol. 2009, 559, 79-93). The Jurkat FADD-deficient I 2.1 cell line used was purchased from ATCC and was maintained in RPMI 1640 medium (Gibco) containing Glutamax and 15% fetal calf serum (Life Technology). Necroptosis was induced by addition of 10 ng/ml of human recombinant TNF-α (Life Technology). Necrostatin-1 (Nec-1, Enzo Life Sciences) was used as model necroptosis inhibitor. Cells were maintained in 75 cm^2 flask and passed every 2 or 3 days. Chemical collections analysed were formatted in 96-well plates with 80 molecules per plate at 10 mM in 100% DMSO. […]
Cells were incubated at 37° C., 5% CO2 for 24 hours before performing MTS viability assay. Cell viability was monitored using CellTiter 96® AQueous Non-Radioactive Cell Proliferation Assay (Promega, Fitchburg, WI, USA), based on the water-soluble tetrazolium compound MTS (3-[4,5-dimethylthiazol-2-yl]-5-[3-carboxymethoxy-phenyl]-2-[4-sulfophenyl]-2H-tetrazolium, inner salt) according to the manufacturers instructions.

[2] = tested on: Human endothelial cells (HAEC); experiment: In vitro hypoxic cold storage viability assay; format: cell-based
Protocol: Human endothelial cells (HAEC) were grown to confluence, then synchronized using depleted media for 16h. For hypothermia/hypoxia, cells were washed twice with PBS then incubated in University of Wisconsin (UW) solution in 95% N2/5% CO2 atmosphere at 4° C. for 24 hours. […] Shown are mean+/−SD, n=3. UW are cells treated only with UW preservation solution. Controls are cells not subjected to this protocol (cells are continuously oxygenated) but cultivated for the same amount of time in regular culture conditions. […] It should be noted that the hypoxic cold storage mimics the process occurring during graft preservation.

[3] = tested on: Human Peripheral Blood Lymphocytes (hPBLs); experiment: Cytotoxicity on human peripheral blood lymphocytes (MTS); format: cell-based; conditions: 0-100 μM tested, 24 hours, FIG. 4
Protocol: Viability was assessed by cell proliferation assay (MTS). % of cell viability was determined using the CellTiter 96® AQueous Non-Radioactive Cell Proliferation Assay (Promega). Data represent the quantitative analysis of six independent experiments with means±SD (n=6 individuals).

[4] = tested on: Human retinal pigment epithelial cell line, ARPE-19; experiment: NaIO3-induced retinal cell death (cellular model of AMD), MTS viability assay; format: cell-based; conditions: subtoxic concentration (+/−20 μM), 10 mM NaIO3, 24 hours, P<0.001
Protocol: At it was previously shown (Hanus et al. Cell Death Discov. 2016, 2, 16054), NaIO3 is an oxidizing agent that induces necroptosis in retinal pigment epithelial cell line that can be inhibited by 200 μM of necrostatin-1. […] Human retinal pigment epithelial cell line, ARPE-19, was treated with 10 mM of NaIO3 as cellular model of age-related macular degeneration (AMD). […] Cells were then incubated at 37° C., 5% CO2 for 24 hours before performing MTS viability assay. Cell viability was monitored using CellTiter 96® AQueous Non-Radioactive Cell Proliferation Assay (Promega, Fitchburg, WI, USA), based on the water-soluble tetrazolium compound MTS (3-[4,5-dimethylthiazol-2-yl]-5-[3-carboxymethoxy-phenyl]-2-[4-sulfophenyl]-2H-tetrazolium, inner salt) according to the manufacturers instructions.

Compound: COc1cc(O)c2c(c1)OC(O)(c1ccc(OCc3ccccc3)cc1)CC2=O (stereo not shown) [compound 1]
- protection of cell viability from death induced by TNF-α ([1]; 0.01-50.00 μM, FIG. 1): protects cells from death induced by TNF-α
- necroptosis inhibition in the library screening ([1]; screening at 10 μM): very efficient necroptosis inhibitor
- cell survival, treatment during hypoxia ([2]; UW solution, 95% N2/5% CO2, 4° C., 24 hours, FIG. 10): measurable benefits on cell survival
- cell survival, treatment during hypoxia and reoxygenation ([2]; UW solution, 95% N2/5% CO2, 4° C., 24 hours, then reoxygenation, FIG. 11): measurable benefits on cell survival
- effect on cell survival compared to the control inhibitors of necroptosis (Nec-1 and Nec-1s) ([2]; hypoxic cold storage): significantly better
- concentration up to which not cytotoxic towards hPBLs [3]: ≤ 20 µM
- protection from death induced by NaIO3 [4]: protects significantly
